pEC50, pIC50: −log10 of the molar value. Activity calls are given as the source filed them. No cut-off for these calls is given here.
Tests used:
[1] = Inhibition of Influenza A virus H5N1 neuraminidase; design: species or system H5N1 subtype
H5N1 subtype [2] = experiment: Antiviral activity against Influenza A virus H5N1 (A/chicken/Hubei/327/2004(H5N1)) infected in dog MDCK cells assessed as inhibition of virus replication by plaque reduction assay; assay type: functional, organism-based
[3] = Cytotoxicity against dog MDCK cells assessed as decrease in cell viability by CCK8 assay; assay type: cell-based, Canis lupus familiaris
[4] = Selectivity index, ratio of CC50 for cytotoxicity against dog MDCK cells to EC50 for antiviral activity against Influenza A virus (A/chicken/Hubei/327/2004(H5N1)) infected in dog MDCK cells; assay type: toxicity, cell-based; details: read-out: Ratio CC50/EC50
H5N1 subtype [5] = experiment: Potency index, ratio of oseltamivir carboxylate IC50 to test compound IC50 for inhibition of Influenza A virus H5N1 neuraminidase
A549 = experiment: Antiviral activity against Influenza A virus H5N1 infected in human A549 cells assessed as inhibition of viral replication by TCID50 assay; assay type: functional, cell-based; details: H5N1 subtype

CCOC(=O)c1c(NC(=O)COc2cccc(C(C)=O)c2)sc(C(=O)OC)c1C
pIC50 [1]: 5.32

CCOC(=O)c1c(NC(=O)COc2ccc(NC(C)=O)cc2)sc(C(=O)OC)c1C
pIC50 [1]: 7.30

CCOC(=O)c1c(NC(=O)COc2ccc(C=O)cc2OCC)sc(C(=O)OC)c1C
pIC50 [1]: 7.15

CCOC(=O)c1c(NC(=O)COc2ccccn2)sc(C(=O)OC)c1C
pIC50 [1]: 6.02

CCOC(=O)c1c(NC(=O)COc2cccc(C=O)c2)sc(C(=O)OC)c1C
pIC50 [1]: 5.25

CCOC(=O)c1c(NC(=O)COc2ccc3ncccc3c2)sc(C(=O)OC)c1C
pIC50 [1]: 7.52 | pEC50 (H5N1 subtype [2]): 5.80 | CC50 [3]: > 800000 nM | selectivity ratio [4]: > 500 | Ratio IC50 (H5N1 subtype [5]): 2 | Activity (A549): Active

CCOC(=O)c1c(NC(=O)COc2ccc(C=O)cc2OC)sc(C(=O)OC)c1C
pIC50 [1]: 5.36

CCOC(=O)c1c(NC(=O)COc2cc(Br)ccc2OC)sc(C(=O)OC)c1C
pIC50 [1]: 6.62

CCOC(=O)c1c(NC(=O)COc2ccc(C=O)cc2)sc(C(=O)OC)c1C
pIC50 [1]: 5.05

CCOC(=O)c1c(NC(=O)COc2cccc3ncccc23)sc(C(=O)OC)c1C
pIC50 [1]: 7.40

— ChEMBL document CHEMBL4828742, “Discovery of novel thiophene derivatives as potent neuraminidase inhibitors” (Eur J Med Chem, 2021)
